Each structure is given as a SMILES string.

The subject of the first data set is HIV. Kind of data set: Anti-HIV activity (MT-4 cells, MTT). In kind it is cell-based. The note with it: Human immunodeficiency virus 1, MT4, 96 h, read-out: EC50_nM (50% HIV inhibitory concentration). As to the method: Serial dilutions of a test sample were prepared in a 96-well microplate (50 μL/well). 2.5×10^5 cells/mL of an MT-4 cell suspension was dispensed at 100 μL/well to the plate containing the test sample. Then, an HIV virus solution was dispensed at 50 μL/well. The plate was mixed with a plate mixer and cultured for 4 days in a CO2 incubator. An MTT (3-(4,5-dimethylthiazol-2-yl)-2,5-diphenyltetrazolium bromide) solution was dispensed at 30 μL/well. The plate was reacted for 1 hour in a CO2 incubator. 150 μL of the supernatant was removed from each well so as not to take up the cells. 150 μL of a cell lysis solution was added to each well and well mixed with a plate mixer until the cells were completely lysed. The absorbance of the mixed plate was measured at two wavelengths of 560 nm and 690 nm using a microplate reader.
Take `CCN1C(=O)c2c(O)c(=O)c(-c3nnc(Cc4ccc(F)cc4F)s3)cn2N2C[C@@H](C)C[C@@H]12` [II-023]: the EC50 was found to be 1200 pM.
For `CCN1C(=O)c2c(O)c(=O)c(-c3nnc(Cc4c(F)cc(F)cc4F)s3)cn2N2[C@H](COC)CC[C@@H]12` [II-037], the EC50 stood at 620 pM.
The same measure, in the same setting: to `C[C@H]1CC[C@H]2N(C)C(=O)c3c(O)c(=O)c(-c4nnc(Cc5ccc(F)cc5F)s4)cn3N2C1` [II-041] belongs 250 pM.
Take `CCN1C(=O)c2c(O)c(=O)c(-c3nnc(Cc4ccc(F)cc4F)s3)cn2N2C[C@@H]3CC[C@@H](C3)[C@@H]12` [II-051]: the EC50 amounted to 660 pM.

The target of the next data set is T1, Voltage gated sodium channel (Nav1.5 channel) encoded by SCN5A gene (Homo sapiens, UniProt Q14524).
T1 construct: expressed in transfected cells; host or cells: HEK cells
T1 sequence (Q14524 whole entry): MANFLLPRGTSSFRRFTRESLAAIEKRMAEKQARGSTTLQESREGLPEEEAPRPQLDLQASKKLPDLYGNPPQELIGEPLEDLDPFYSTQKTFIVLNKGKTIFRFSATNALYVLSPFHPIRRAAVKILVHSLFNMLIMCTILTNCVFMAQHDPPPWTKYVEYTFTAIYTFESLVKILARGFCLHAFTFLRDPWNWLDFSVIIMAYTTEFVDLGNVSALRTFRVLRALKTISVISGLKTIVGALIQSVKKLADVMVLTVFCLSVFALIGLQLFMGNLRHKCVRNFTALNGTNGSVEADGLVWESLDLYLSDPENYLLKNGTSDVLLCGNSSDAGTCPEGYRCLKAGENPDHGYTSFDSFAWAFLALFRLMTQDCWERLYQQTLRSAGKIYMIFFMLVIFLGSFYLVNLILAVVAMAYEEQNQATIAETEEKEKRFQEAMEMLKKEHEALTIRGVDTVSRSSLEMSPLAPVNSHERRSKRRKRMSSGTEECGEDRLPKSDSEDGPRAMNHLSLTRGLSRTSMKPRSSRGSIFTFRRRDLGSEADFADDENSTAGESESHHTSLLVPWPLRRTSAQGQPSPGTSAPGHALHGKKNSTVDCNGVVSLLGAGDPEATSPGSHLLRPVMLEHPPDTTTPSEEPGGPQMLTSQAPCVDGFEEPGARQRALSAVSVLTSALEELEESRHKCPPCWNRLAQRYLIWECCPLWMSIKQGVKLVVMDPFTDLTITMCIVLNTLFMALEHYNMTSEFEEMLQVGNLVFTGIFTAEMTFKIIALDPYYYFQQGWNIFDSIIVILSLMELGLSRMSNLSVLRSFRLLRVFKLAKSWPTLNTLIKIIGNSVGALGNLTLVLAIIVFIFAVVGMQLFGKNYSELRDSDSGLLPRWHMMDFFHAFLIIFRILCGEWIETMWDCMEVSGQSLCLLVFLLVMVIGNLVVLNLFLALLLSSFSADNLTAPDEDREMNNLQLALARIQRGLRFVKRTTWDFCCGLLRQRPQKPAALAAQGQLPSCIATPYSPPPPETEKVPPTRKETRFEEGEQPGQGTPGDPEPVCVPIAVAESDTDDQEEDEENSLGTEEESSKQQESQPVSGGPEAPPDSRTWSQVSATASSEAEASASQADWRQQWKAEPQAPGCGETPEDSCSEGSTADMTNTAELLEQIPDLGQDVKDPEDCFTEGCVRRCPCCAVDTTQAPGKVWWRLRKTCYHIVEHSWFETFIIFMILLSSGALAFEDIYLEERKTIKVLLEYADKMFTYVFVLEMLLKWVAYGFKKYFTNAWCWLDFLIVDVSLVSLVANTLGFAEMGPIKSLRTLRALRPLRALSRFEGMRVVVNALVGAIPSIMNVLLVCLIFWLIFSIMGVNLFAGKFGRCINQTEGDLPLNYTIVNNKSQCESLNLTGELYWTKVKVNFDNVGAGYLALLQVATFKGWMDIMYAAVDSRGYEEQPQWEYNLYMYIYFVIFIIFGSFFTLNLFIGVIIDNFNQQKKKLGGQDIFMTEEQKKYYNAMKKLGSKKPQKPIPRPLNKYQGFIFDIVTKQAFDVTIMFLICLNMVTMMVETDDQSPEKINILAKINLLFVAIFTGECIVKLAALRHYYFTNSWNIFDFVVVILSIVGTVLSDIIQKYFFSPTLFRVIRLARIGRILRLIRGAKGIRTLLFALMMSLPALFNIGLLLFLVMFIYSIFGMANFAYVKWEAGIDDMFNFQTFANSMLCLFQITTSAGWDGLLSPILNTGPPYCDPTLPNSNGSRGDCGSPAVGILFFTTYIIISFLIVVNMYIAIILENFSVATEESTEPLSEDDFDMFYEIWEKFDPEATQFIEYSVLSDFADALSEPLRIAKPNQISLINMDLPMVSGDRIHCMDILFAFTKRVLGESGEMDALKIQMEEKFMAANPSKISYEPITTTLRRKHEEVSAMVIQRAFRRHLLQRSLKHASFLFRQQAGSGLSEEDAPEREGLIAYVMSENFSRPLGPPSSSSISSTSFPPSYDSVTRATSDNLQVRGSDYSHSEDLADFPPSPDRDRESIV
The experiment in a line: Nav test (QPatch whole cell patch clamp). In kind it is cell-based. Particulars: HEK cells expressing Nav1.5, applied 5 minutes or more, room temperature. Here is the method:
A cell was retained at a membrane potential of −100 mV by whole cell patch clamp method using a fully automated patch clamp system (QPatch; Sophion Bioscience A/S), and INa induced by depolarization pulse stimulation at −10 mV for 20 ms was recorded. […] The extracellular solution in which the medium and the compound of the present invention had been dissolved at each objective concentration was applied to the cell for 5 minutes or more under conditions of room temperature.
On the technique in general: Patch clamp records ionic current or voltage across a cell membrane.
`CCN1C(=O)c2c(O)c(=O)c(-c3nnc(Cc4ccc(F)cc4F)s3)cn2N2C[C@@H](C)C[C@@H]12` [II-023]: the “ratio of maximum peak current (INa) with compound relative to medium” value (“ratio … with compound relative to medium” for short) is reported as 93.3%.
As to `CCN1C(=O)c2c(O)c(=O)c(-c3nnc(Cc4c(F)cc(F)cc4F)s3)cn2N2[C@H](COC)CC[C@@H]12` [II-037], the “ratio … with compound relative to medium” value was 88.8%.
`C[C@H]1CC[C@H]2N(C)C(=O)c3c(O)c(=O)c(-c4nnc(Cc5ccc(F)cc5F)s4)cn3N2C1` [II-041]: the “ratio … with compound relative to medium” value was found to be 78.8%.

The test system of the next data set is HIV. Kind of data set: Anti-HIV activity evaluation test using PBMC of a healthy subject. In kind it is cell-based. The note with it: Human immunodeficiency virus 1, 96 h, read-out: 90% HIV inhibitory concentration (EC90); PHA-stimulated PBMC, cultured 4 days, reverse transcriptase activity. Here is the method: Serial dilutions of a test sample were prepared in a 96-well microplate (50 μL/well). PBMC stimulated with 1.0×10^5 cells/well of Phytohemagglutinin (PHA) and an HIV virus solution were mixed for the required number of wells, and the mixture was reacted at 37° C. for 1 hour. After the reaction, the cell suspension was centrifuged and the supernatant discarded. The infected cells were dispersed in a culture solution for the required number of wells at 150 μL/well, and 150 μL/well was dispensed to a 96-well microplate containing a test sample. The plate was mixed with a plate mixer and cultured for 4 days in a C02 incubator. The reverse transcriptase activity in the culture solution was measured.
Regarding `CCN1C(=O)c2c(O)c(=O)c(-c3nnc(Cc4ccc(F)cc4F)s3)cn2N2C[C@@H](C)C[C@@H]12` [II-023], the EC90 worked out at 1700 pM.

System in the next data set: not given
Assay: not given
In kind it is in vitro ADME. The note with it: human, 30 min, 0.5 μmol/L, pH 7.4. As to the method: Using commercially available pooled human liver microsomes, a compound of the present invention was reacted for a constant time, and a remaining rate was calculated by comparing a reacted sample and an unreacted sample, thereby, a degree at which the compound of the present invention was metabolized in liver was assessed.
A reaction was performed (oxidative reaction) at 37° C. for 0 minute or 30 minutes in the presence of 1 mmol/L NADPH in 0.2 mL of a buffer solution (50 mmol/L Tris-HCl pH 7.4, 150 mmol/L potassium chloride, 10 mmol/L magnesium chloride) containing 0.5 mg protein/mL of human liver microsomes. After the reaction, 50 μL of the reaction solution was added to 100 μL of a solution of methanol/acetonitrile=1/1 (v/v), and the mixture was mixed and centrifuged at 3000 rpm for 15 minutes. The compound of the present invention in the centrifugation supernatant was quantified by LC/MS/MS or solid-phase extraction (SPE)/MS. The amount of the compound of the present invention remaining after the reaction was calculated with the amount of the compound at 0 minutes of the reaction defined as 100%.
The compound `CCN1C(=O)c2c(O)c(=O)c(-c3nnc(Cc4ccc(F)cc4F)s3)cn2N2C[C@@H](C)C[C@@H]12` [II-023] yielded a residual rate of 98.3.
In the case of `CCN1C(=O)c2c(O)c(=O)c(-c3nnc(Cc4c(F)cc(F)cc4F)s3)cn2N2[C@H](COC)CC[C@@H]12` [II-037], the residual rate is listed as 93.4.
`C[C@H]1CC[C@H]2N(C)C(=O)c3c(O)c(=O)c(-c4nnc(Cc5ccc(F)cc5F)s4)cn3N2C1` [II-041] had a residual rate of 95.5.
As to `CCN1C(=O)c2c(O)c(=O)c(-c3nnc(Cc4ccc(F)cc4F)s3)cn2N2C[C@@H]3CC[C@@H](C3)[C@@H]12` [II-051], the residual rate turned out to be 92.9.

The next data set has as its system HIV mutant strain 2 (E92Q/E138T/G140S/Q148H).
Assay: not given
In kind it is cell-based. Particulars: FC=EC50 of the mutant strain/EC50 of the wild strain, HeLa-CD4 cells. As to the method: (§1) Serial dilutions of a test sample were prepared in a 96-well microplate (50 μL/well). 2.5×10^5 cells/mL of a HeLa-CD4 cell suspension was dispensed at 100 μL/well to the plate containing the test sample. Then, an HIV virus solution (wild strain and mutant strain) was dispensed at 50 μL/well. The plate was mixed with a plate mixer and cultured for 3 days in a CO2 incubator. The culture supernatant in each well was removed by suction. A cell lysis buffer in a reporter assay kit was dispensed at 100 μL/well, and the plate was frozen in a freezer (−80° C.). The plate frozen in a freezer was thawed at room temperature, then mixed with a plate mixer, and centrifuged at 1,200 rpm for 5 minutes. The supernatant of each well was dispensed at 20 μL/well to a 96-well microplate (BLACK). A chemiluminescent in the reporter assay kit reagent was dispensed at 100 μL/well and reacted at room temperature for approximately 1 hour. Then, luminescence intensity was measured using MicroBeta TRILUX.
For `CCN1C(=O)c2c(O)c(=O)c(-c3nnc(Cc4ccc(F)cc4F)s3)cn2N2C[C@@H](C)C[C@@H]12` [II-023], the “FC (fold change) for mutant strain 2” value worked out at 2.5.
On to `CCN1C(=O)c2c(O)c(=O)c(-c3nnc(Cc4c(F)cc(F)cc4F)s3)cn2N2[C@H](COC)CC[C@@H]12` [II-037], for which the “FC (fold change) for mutant strain 2” value came to 11.
For `C[C@H]1CC[C@H]2N(C)C(=O)c3c(O)c(=O)c(-c4nnc(Cc5ccc(F)cc5F)s4)cn3N2C1` [II-041], the “FC (fold change) for mutant strain 2” value amounted to 8.
Same read-out and setting: for `CCN1C(=O)c2c(O)c(=O)c(-c3nnc(Cc4ccc(F)cc4F)s3)cn2N2C[C@@H]3CC[C@@H](C3)[C@@H]12` [II-051] the value was 3.9.

The next data set deals with HIV mutant strain 1 (E138K/G140S/Q148H/N155H).
Assay: not given
In kind it is cell-based. The note with it: FC=EC50 of the mutant strain/EC50 of the wild strain, HeLa-CD4 cells. Here is the method:
as §1
Turning to `CCN1C(=O)c2c(O)c(=O)c(-c3nnc(Cc4ccc(F)cc4F)s3)cn2N2C[C@@H](C)C[C@@H]12` [II-023], the “FC (fold change) for mutant strain 1” value stood at 4.1.
For `CCN1C(=O)c2c(O)c(=O)c(-c3nnc(Cc4c(F)cc(F)cc4F)s3)cn2N2[C@H](COC)CC[C@@H]12` [II-037], the “FC (fold change) for mutant strain 1” value amounted to 10.
For the compound `C[C@H]1CC[C@H]2N(C)C(=O)c3c(O)c(=O)c(-c4nnc(Cc5ccc(F)cc5F)s4)cn3N2C1` [II-041], the “FC (fold change) for mutant strain 1” value was determined as 5.8.
For the compound `CCN1C(=O)c2c(O)c(=O)c(-c3nnc(Cc4ccc(F)cc4F)s3)cn2N2C[C@@H]3CC[C@@H](C3)[C@@H]12` [II-051], the “FC (fold change) for mutant strain 1” value amounted to 2.5.

Another data set deals with T2, CYP3A4 (Homo sapiens, UniProt P08684).
T2 construct: from tissue; host or cells: pooled human liver microsomes
T2 sequence (P08684 whole entry): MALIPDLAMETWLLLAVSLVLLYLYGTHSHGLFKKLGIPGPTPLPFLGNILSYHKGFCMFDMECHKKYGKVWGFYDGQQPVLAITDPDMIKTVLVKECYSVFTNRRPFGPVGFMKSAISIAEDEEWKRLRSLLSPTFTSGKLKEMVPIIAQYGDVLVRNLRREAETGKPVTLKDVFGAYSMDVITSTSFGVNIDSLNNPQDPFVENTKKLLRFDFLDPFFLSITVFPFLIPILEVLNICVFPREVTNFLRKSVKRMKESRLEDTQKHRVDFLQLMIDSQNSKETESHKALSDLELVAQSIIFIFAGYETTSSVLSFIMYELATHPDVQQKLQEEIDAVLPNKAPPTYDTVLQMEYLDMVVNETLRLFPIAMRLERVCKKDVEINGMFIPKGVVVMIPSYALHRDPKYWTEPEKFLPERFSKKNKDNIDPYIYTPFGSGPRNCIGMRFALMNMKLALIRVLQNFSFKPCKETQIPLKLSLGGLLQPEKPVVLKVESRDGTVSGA
The experiment in a line: CYP3A4 (MDZ) MBI test. In kind it is in vitro ADME. The note with it: pooled human liver microsomes, midazolam 1-hydroxylation, IC 0 min preincubation/IC 30-min preincubation. As to the method:
This test as to the inhibition of CYP3A4 by the compound of the present invention is to evaluate mechanism based inhibition (MBI) ability from enhancement in inhibitory effect, caused by a metabolism reaction, of the compound of the present invention. CYP3A4 inhibition was evaluated using pooled human liver microsomes by 1-hydroxylation reaction of midazolam (MDZ) as a marker reaction. […]
A part of pre-reaction solution was transferred to another 96-well plate, and 1/10 diluted by K-Pi buffer solution containing a substrate. […] After each plate where the marker reaction has been performed was centrifuged at 3000 rpm for 15 minutes, 1-hydroxymidazolam in the centrifugation supernatant was quantified by LC/MS/MS.
Only a solvent DMSO used for dissolving the compound was added to the reaction solution instead of the compound of the present invention, and the mixture was used as a control (100%). Remaining activity (%) was calculated at the time of the addition of the compound of the present invention at each concentration, and IC value was calculated by inverse estimation based on a logistic model using the concentrations and the rates of inhibition. A shifted IC value is calculated from IC from the 0 min preincubation/IC from the 30-min preincubation. […]
On the technique in general: Microsomes from liver hold many membrane-bound enzymes, among them those of drug oxidation.
For the compound `CCN1C(=O)c2c(O)c(=O)c(-c3nnc(Cc4c(F)cc(F)cc4F)s3)cn2N2[C@H](COC)CC[C@@H]12` [II-037], the “CYP3A4 MBI grade (shifted IC)” value is “(−) (shifted IC of 1.0 or less is graded as negative (−))”.
For `CCN1C(=O)c2c(O)c(=O)c(-c3nnc(Cc4ccc(F)cc4F)s3)cn2N2C[C@@H]3CC[C@@H](C3)[C@@H]12` [II-051], the “CYP3A4 MBI grade (shifted IC)” value is “(−) (shifted IC of 1.0 or less is graded as negative (−))”.

For a further data set, the system named is HIV. The experiment in a line: Anti-HIV activity evaluation test in the presence of human serum protein (MT-4 cells). In kind it is cell-based. Particulars: PS=4×(EC50 with 25% human serum protein/EC50 without), 100% extrapolated value. As to the method: Serial dilutions of a test sample were prepared in a 96-well microplate (50 μL/well). A human serum protein solution (human serum protein concentration: 50%) was dispensed into a 96-well microplate containing a test sample in an amount of 100 μL/well, and left standing at room temperature for 1 hour. 100 μL/well of the culture solution was dispensed to a plate without serum. 3.0×10^5 cells/well of MT-4 cells and 3 μL/well of HIV virus solution were mixed for the required number of wells and the mixture was reacted at 37° C. for 1 hour. After the reaction, the cell suspension was centrifuged and the supernatant discarded. The infected cells were dispersed in a culture solution for the required number of wells at 50 μL/well, and 50 μL/well was dispensed to a 96-well microplate containing the test sample and human serum protein (human serum protein final concentration: 25%). The plate was mixed with a plate mixer and cultured for 4 days in a CO2 incubator. An MTT (3-(4,5-dimethylthiazol-2-yl)-2,5-diphenyltetrazolium bromide) solution was dispensed at 30 μL/well. The plate was reacted for 1 hour in a CO2 incubator. 150 μL of the supernatant was removed from each well so as not to take up the cells. […] The absorbance of the mixed plate was measured at two wavelengths of 560 nm and 690 nm using a microplate reader. […]
For `CCN1C(=O)c2c(O)c(=O)c(-c3nnc(Cc4ccc(F)cc4F)s3)cn2N2C[C@@H](C)C[C@@H]12` [II-023], the “potency shift (PS) in the presence of human serum protein” value was 56.

The values are drawn from patent publication US11453669B2, “Polycyclic pyridone derivative” (Shionogi & Co., Ltd., priority 2018, dated 2022).
